{
  "source": "paper PMC8916643",
  "about": "“Molecular physiology of pumiliotoxin sequestration in a poison frog” (PLoS ONE, 2022)",
  "key": {"panel of 165 GPCRs": {"system": "panel of 165 GPCRs", "test": "gpcrMAX PathHunter beta-arrestin GPCR panel (agonist and antagonist)", "type": "cell-based, human", "conditions": "10 uM; 165 GPCRs tested", "method": "(§1) Assays for human CYP activity (CYP phenotyping), CYP2D6 metabolite discovery (metID), ion channel inhibition (CiPA), and G-protein coupled receptor (GPCR) activity (gpcrMAX) were performed through Eurofins Discovery Services (Eurofins Panlabs Inc, St. Charles MO, USA). In the CYP phenotyping panel, human recombinant CYP1A2, CYP2B6, CYP2C8, CYP2C9, CYP2C19, CYP2D6, and CYP3A4 were included in the assay. A concentration of 1E-07 M of PTX 251D was tested, and the percent compound remaining was quantified at 0, 15, 30, 45, and 60 minutes using HPLC-MS/MS. As a positive control, a reference compound was used for each CYP tested (see S1 File for results). In the CYP2D6 metabolism assay, human recombinant CYP2D6 was incubated with an initial concentration of 10 μM and metabolites were quantified after 90 minutes using LC-MS/MS. Two replicates were used for the CYP phenotyping panel and one replicate was used for CYP2D6 metabolite assay. The CiPA assay was a cell-based QPatch on voltage-gated sodium channel NaV1.5 (peak and late/agonist), voltage-gated potassium channels Kv4.3/KChIP2, hERG, KCNQ1/minK, Kir2.1, and voltage-gated calcium channel Cav1.2. The concentrations of PTX 251D assayed were 3, 10, and 30 μM, and a reference compound for each channel was used (see S1 File for results and individual QPatch parameters). […]"}, "human recombinant CYP2D6": {"biological_target": "T1, human recombinant CYP2D6 (Homo sapiens, UniProt P10635)", "T1 construct": "Eurofins Discovery Services (Eurofins Panlabs Inc) ran the assay", "T1 sequence (P10635 whole entry)": "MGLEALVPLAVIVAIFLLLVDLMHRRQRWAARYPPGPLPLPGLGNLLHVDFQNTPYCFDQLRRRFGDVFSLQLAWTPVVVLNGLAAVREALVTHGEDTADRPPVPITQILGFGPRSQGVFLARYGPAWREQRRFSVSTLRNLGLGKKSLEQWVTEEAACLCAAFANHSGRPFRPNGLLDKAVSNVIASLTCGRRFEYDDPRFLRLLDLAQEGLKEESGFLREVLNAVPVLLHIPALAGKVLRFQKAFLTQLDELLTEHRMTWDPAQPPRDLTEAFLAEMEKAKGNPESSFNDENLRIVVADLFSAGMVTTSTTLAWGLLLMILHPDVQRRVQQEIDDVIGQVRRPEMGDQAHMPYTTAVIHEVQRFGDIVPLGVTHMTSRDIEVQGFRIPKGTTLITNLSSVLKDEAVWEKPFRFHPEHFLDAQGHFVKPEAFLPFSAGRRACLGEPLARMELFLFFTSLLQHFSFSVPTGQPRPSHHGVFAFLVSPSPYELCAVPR", "test": "CYP2D6 metabolite discovery (metID)", "type": "in vitro ADME", "conditions": "initial concentration 10 μM", "method": "as §1"}, "[1]": {"system": "mammalian and insect voltage-gated sodium and potassium channels", "set-up": "method as in PMID 18061227", "conditions": "100 μM; strongest effect on hKv1.3; cited from earlier work"}, "mice": {"system": "mice", "conditions": "mice and insects; cited from earlier work"}, "[2]": {"biological_target": "T2, human recombinant CYP2C19 (Homo sapiens, UniProt P33261)", "T2 construct": "Eurofins Discovery Services (Eurofins Panlabs Inc) ran the assay", "T2 sequence (P33261 whole entry)": "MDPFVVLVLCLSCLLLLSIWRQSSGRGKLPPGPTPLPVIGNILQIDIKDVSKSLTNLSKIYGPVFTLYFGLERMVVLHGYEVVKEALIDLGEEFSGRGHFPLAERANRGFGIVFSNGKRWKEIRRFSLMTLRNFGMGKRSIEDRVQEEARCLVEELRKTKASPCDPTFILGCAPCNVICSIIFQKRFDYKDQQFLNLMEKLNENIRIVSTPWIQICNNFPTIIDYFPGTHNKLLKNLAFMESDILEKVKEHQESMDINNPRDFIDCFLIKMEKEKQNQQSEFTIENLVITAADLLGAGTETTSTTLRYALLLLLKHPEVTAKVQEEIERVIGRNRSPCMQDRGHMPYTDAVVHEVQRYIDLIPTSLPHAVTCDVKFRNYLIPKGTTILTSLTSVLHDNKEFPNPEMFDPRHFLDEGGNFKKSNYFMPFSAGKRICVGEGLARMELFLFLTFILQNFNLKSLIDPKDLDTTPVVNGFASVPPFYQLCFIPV", "test": "CYP phenotyping panel (PTX 251D clearance)", "type": "in vitro ADME", "conditions": "1E-07 M PTX 251D; after 60 minutes", "method": "(§2) Assays for human CYP activity (CYP phenotyping), CYP2D6 metabolite discovery (metID), ion channel inhibition (CiPA), and G-protein coupled receptor (GPCR) activity (gpcrMAX) were performed through Eurofins Discovery Services (Eurofins Panlabs Inc, St. Charles MO, USA). In the CYP phenotyping panel, human recombinant CYP1A2, CYP2B6, CYP2C8, CYP2C9, CYP2C19, CYP2D6, and CYP3A4 were included in the assay. A concentration of 1E-07 M of PTX 251D was tested, and the percent compound remaining was quantified at 0, 15, 30, 45, and 60 minutes using HPLC-MS/MS. As a positive control, a reference compound was used for each CYP tested (see S1 File for results). In the CYP2D6 metabolism assay, human recombinant CYP2D6 was incubated with an initial concentration of 10 μM and metabolites were quantified after 90 minutes using LC-MS/MS. Two replicates were used for the CYP phenotyping panel and one replicate was used for CYP2D6 metabolite assay. The CiPA assay was a cell-based QPatch on voltage-gated sodium channel NaV1.5 (peak and late/agonist), voltage-gated potassium channels Kv4.3/KChIP2, hERG, KCNQ1/minK, Kir2.1, and voltage-gated calcium channel Cav1.2. The concentrations of PTX 251D assayed were 3, 10, and 30 μM, and a reference compound for each channel was used (see S1 File for results and individual QPatch parameters). In the gpcrMAX assay a panel of 165 GPCRs was tested through the DiscoverX PathHunter beta-arrestin enzyme fragment complementation technology, and a concentration of 10 μM PTX 251D was tested for both agonist and antagonist activity along with a reference compound for each GPCR (see S1 File for results)."}, "human recombinant CYP2C8": {"biological_target": "T3, human recombinant CYP2C8 (Homo sapiens, UniProt P10632)", "T3 construct": "Eurofins Discovery Services (Eurofins Panlabs Inc) ran the assay", "T3 sequence (P10632 1-490)": "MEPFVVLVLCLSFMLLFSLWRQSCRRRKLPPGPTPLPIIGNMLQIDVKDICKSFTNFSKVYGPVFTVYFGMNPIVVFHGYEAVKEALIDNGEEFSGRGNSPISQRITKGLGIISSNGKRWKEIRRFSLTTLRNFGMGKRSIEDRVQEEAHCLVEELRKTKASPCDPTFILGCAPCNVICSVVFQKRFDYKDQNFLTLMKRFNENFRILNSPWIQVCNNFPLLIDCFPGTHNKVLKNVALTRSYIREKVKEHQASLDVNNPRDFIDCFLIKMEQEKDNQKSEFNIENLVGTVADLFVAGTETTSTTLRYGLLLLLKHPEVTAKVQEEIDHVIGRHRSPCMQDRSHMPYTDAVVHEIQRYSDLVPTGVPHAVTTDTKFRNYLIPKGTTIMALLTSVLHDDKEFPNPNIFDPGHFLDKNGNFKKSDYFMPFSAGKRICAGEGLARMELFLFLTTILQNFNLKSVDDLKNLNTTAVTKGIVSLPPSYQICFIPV", "test": "CYP phenotyping panel (PTX 251D clearance)", "type": "in vitro ADME", "conditions": "1E-07 M PTX 251D; after 60 minutes", "method": "as §2"}, "human recombinant CYP1A2": {"biological_target": "T4, human recombinant CYP1A2 (Homo sapiens, UniProt P05177)", "T4 construct": "Eurofins Discovery Services (Eurofins Panlabs Inc) ran the assay", "T4 sequence (P05177 1-516)": "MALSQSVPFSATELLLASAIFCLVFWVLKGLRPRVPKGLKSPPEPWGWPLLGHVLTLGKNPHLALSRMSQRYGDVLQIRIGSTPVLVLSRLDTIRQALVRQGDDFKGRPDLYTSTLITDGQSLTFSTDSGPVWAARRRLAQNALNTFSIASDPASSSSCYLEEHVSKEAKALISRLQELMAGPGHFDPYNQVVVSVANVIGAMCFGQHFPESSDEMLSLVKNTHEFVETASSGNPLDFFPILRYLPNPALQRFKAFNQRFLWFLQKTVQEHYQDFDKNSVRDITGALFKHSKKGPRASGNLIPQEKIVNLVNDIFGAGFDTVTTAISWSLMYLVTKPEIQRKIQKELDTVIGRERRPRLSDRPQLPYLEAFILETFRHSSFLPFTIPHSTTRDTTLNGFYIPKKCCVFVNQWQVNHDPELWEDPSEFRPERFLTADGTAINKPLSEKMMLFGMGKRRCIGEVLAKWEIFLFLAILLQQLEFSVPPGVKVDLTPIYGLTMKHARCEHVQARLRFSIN", "test": "CYP phenotyping panel (PTX 251D clearance)", "type": "in vitro ADME", "conditions": "1E-07 M PTX 251D; after 60 minutes", "method": "as §2"}},
  "data": [
    {"smiles": "CCCCC(C)C=C1CN2CCCC2C(C)(O)C1", "note": "(centres unmarked) [PTX 251D, pumiliotoxin (PTX 251D)]", "values": [
      {"measurement": "inhibition or activation of GPCRs", "setting": "panel of 165 GPCRs", "result": "no significant inhibition or activation"},
      {"measurement": "metabolites identified with CYP2D6", "setting": "human recombinant CYP2D6; 90 minutes, one or two hydroxylation events", "result": "two metabolites were identified"},
      {"measurement": "clearance of PTX 251D in CYP2D6 metabolite discovery screen", "setting": "human recombinant CYP2D6; after 90 minutes, LC-MS/MS", "result": "completely cleared"},
      {"measurement": "effect on voltage-gated sodium and potassium channels", "setting": "[1]", "result": "inhibits both types of channels"},
      {"measurement": "toxic effects", "setting": "mice", "result": "pain, hyperactivity, convulsions and death"},
      {"measurement": "clearance of PTX 251D by CYP2C19", "setting": "[2]", "result": "minimal clearance"},
      {"measurement": "clearance of PTX 251D by CYP2C8", "setting": "human recombinant CYP2C8", "result": "minimal clearance"},
      {"measurement": "clearance of PTX 251D by CYP1A2", "setting": "human recombinant CYP1A2", "result": "minimal clearance"}
    ]}
  ]
}
